Assay results published in patent publication US20240261236A1, “METHODS OF USING NMDA RECEPTOR ANTAGONISTS” (Seelos Therapeutics, Inc., priority 2021, published 2024).

Legend:
[1] = system: adults with major depressive disorder (MDD) who are at imminent risk of suicide; assay: MADRS item 10 (suicidal thoughts), Phase 2 Part 1; type: in vivo, human; settings: for MADRS item 10 (suicidality) score: 24 hours post-administration, baseline 5 units; for MADRS Item 10 mean score: baseline 5.2; for MADRS Suicide Item-10 response rate: summary through Day 29/30
Text: The Montgomery-Åsberg Depression Rating Scale (MADRS) is a diagnostic questionnaire that can be used to measure the severity of a depressive episode in a subject. In some embodiments, the MADRS can be used to measure suicidal ideation. For example, the MADRS includes 10 items directed to the following: 1) apparent sadness (e.g., representing despondency, gloom and despair that is more than just ordinary transient low spirits that is reflected in speech, facial expression, and posture); 2) reported sadness (e.g., representing reports of depressed mood, regardless of whether it is reflected in appearance or not and can include low spirits, despondency or the feeling of being beyond help and without hope); 3) inner tension (e.g., representing feelings of ill-defined discomfort, edginess, inner turmoil, mental tension mounting to either panic, dread or anguish); 4) reduced sleep (e.g., representing the experience of reduced duration or depth of sleep compared to the subject's own normal pattern when well); 5) reduced appetite (e.g., representing the feeling of a loss of appetite compared with when-well); 6) concentration difficulties (e.g., representing difficulties in collecting one's thoughts mounting to an incapacitating lack of concentration); 7) lassitude (e.g., representing difficulty in getting started or slowness in initiating and performing everyday activities); 8) inability to feel (e.g., representing the subjective experience of reduced interest in the surroundings, or activities that normally give pleasure, and the ability to react with adequate emotion to circumstances or people is reduced); 9) pessimistic thoughts (e.g., representing thoughts of guilt, inferiority, self-reproach, sinfulness, remorse and ruin); and 10) suicidal thoughts (e.g., representing the feeling that life is not worth living, that a natural death would be welcome, suicidal thoughts, and preparations for suicide). Each item is rated from 0 units to 6 units, with 0 reflecting that the subject is not at all as described by the item and 6 reflecting that the subject is extremely like what is described by the item. […] As another example, for suicidal thoughts, a score of 0 units can indicate that the subject enjoys life or takes it as it comes; a score of 2 units can indicate that the subject is weary of life and may have fleeting suicidal thoughts; a score of 4 units can indicate that the subject feels he or she would probably be better off dead (e.g., suicidal thoughts are common, and suicide is considered as a possible solution, but without specific plans or intention); and a score of 6 units can indicate that the subject has explicit plans for suicide when there is an opportunity (e.g., the subject has made active preparations for suicide). Thus, the total score, after summation of each score for each item, is on a scale of 0 units to 60 units.
In some embodiments, item 10, e.g., suicidal thoughts, of the MADRS can be used to measure suicidal ideation.
The secondary endpoints are the change from baseline at 24 hours, as well as at Day 16, in the following: • (1) S-STS total score • (2) MADRS Total at Day 16 (only) • (3) Clinical Global Impression (CGI) of Severity for SI/B (CGIS-SI/B) and Change in SI/B (CGIC-SI/B) • (4) Patient Global Impression (PGI) of Severity for SI/B (PGIS-SI/B) and Change in SI/B (PGIC-SI/B • (5) S-STS Clinician-Rated Global Severity of Suicidal Impulses, Thoughts, and Behaviors • (6) S-STS Clinician judgment of subject's risk of a suicide attempt or death by suicide at this time • (7) S-STS Clinician judgment of subject's likelihood (risk) of making a suicide attempt or of dying by suicide in the next 7 days • (8) S-STS Subject-rated global severity of suicidal impulses, thoughts, and behavior • (9) S-STS Subject-rated treatment needed score • (10) MADRS item 10 response rate (response ≤3 units) • (11) MADRS Total response (total score ≥50% reduction from baseline) • (12) MADRS Total remission (total score ≤12 units) […]

[2] = system: adults with major depressive disorder (MDD) who are at imminent risk of suicide; assay: S-STS CMCM Risk of Suicide at Within the Next 7 Days; type: in vivo, human; settings: 90 mg IN+SOC
Text: The S-STS CMCM (version 01/01/19) is a clinician-rated outcome measure which assesses SI/B on a standard 22-item scale, as well as multiple patient and clinician-rated items. The first 16 items are rated on a Likert-type scale ranging from “not at all” (0 units) to “extremely” (4 units), where select scoring (i.e., 4 specific items are scored based on the highest score on 2 of those items) yields a total score ranging from 0 units to 52 units. The final 6 items are used only when the patient misses a visit and is unable to complete the scale; if that missed visit is due to attempted or completed suicide, the possible maximum score is 100. The CMCM also yields 5 different single-item global assessments: 1) subject-rated likelihood of a suicide attempt; 2) subject-rated treatment needed; 3) clinician global severity of suicidal impulses, thoughts, and behaviors; 4) clinician judgment of suicide risk at this time and level of management needed for suicidality; and 5) clinician judgment of subject's likelihood of making a suicide attempt or of dying by suicide in the next 7 days.
The secondary endpoints are the change from baseline at 24 hours, as well as at Day 16, in the following: • (1) S-STS total score • (2) MADRS Total at Day 16 (only) • (3) Clinical Global Impression (CGI) of Severity for SI/B (CGIS-SI/B) and Change in SI/B (CGIC-SI/B) • (4) Patient Global Impression (PGI) of Severity for SI/B (PGIS-SI/B) and Change in SI/B (PGIC-SI/B • (5) S-STS Clinician-Rated Global Severity of Suicidal Impulses, Thoughts, and Behaviors • (6) S-STS Clinician judgment of subject's risk of a suicide attempt or death by suicide at this time • (7) S-STS Clinician judgment of subject's likelihood (risk) of making a suicide attempt or of dying by suicide in the next 7 days • (8) S-STS Subject-rated global severity of suicidal impulses, thoughts, and behavior • (9) S-STS Subject-rated treatment needed score • (10) MADRS item 10 response rate (response ≤3 units) • (11) MADRS Total response (total score ≥50% reduction from baseline) • (12) MADRS Total remission (total score ≤12 units)

**Q.** `CNC1(c2ccccc2Cl)CCCCC1=O` (racemic) [intranasal racemic ketamine, 1:1 mixture of the two enantiomers of ketamine: (R)-2-(2-chlorophenyl)-2-(methylamino)cyclohexanone and (S)-2-(2-chlorophenyl)-2-(methylamino)cyclohexanone] was tested. Which “sustained response on MADRS Item 10, time after the final administration” value ([1]; 90 mg IN+SOC) did it give?
**A.** 15 days

**Q.** And the “MADRS item 10 (suicidality) score” value ([1]; 90 mg IN+SOC, Subject 1, range 0-6)?
**A.** 0 units

**Q.** What about the “MADRS item 10 (suicidality) score” value ([1]; 90 mg IN+SOC, second subject (not given)) of the same compound?
**A.** 0 units

**Q.** And the “subjects who experienced MADRS Item 10 response” value ([1]; 24 hours post-dose)?
**A.** 94.1%

**Q.** And the “MADRS Item 10 mean score” value ([1]; Day 1)?
**A.** 0.8

**Q.** And the “subjects who experienced MADRS Item 10 response” value ([1]; Day 16)?
**A.** 100%

**Q.** What about the “MADRS Item 10 mean score” value ([1]; Day 29) of the same compound?
**A.** 0.0

**Q.** And the “subjects who experienced MADRS Item 10 response” value ([1]; study end (Day 29/30))?
**A.** 100%

**Q.** And the “MADRS Suicide Item-10 response rate” value ([1]; Day 1)?
**A.** 94%

**Q.** What about the “MADRS Suicide Item-10 response rate” value ([1]; Day 16) of the same compound?
**A.** 100%

**Q.** And the “S-STS CMCM Risk of Suicide at Within the Next 7 Days score” value (“S-STS CMCM Risk of Suicide” for short) ([2]; Subject 1, 24 hours post-administration, from 5 units, range 1-10)?
**A.** 2 units

**Q.** What about the “S-STS CMCM Risk of Suicide” value ([2]; Subject 2, 24 hours post-administration, baseline 7 units) of the same compound?
**A.** 1 unit

**Q.** And the “S-STS CMCM Risk of Suicide” value ([2]; the scores (Subjects 1 and 2), Day 4)?
**A.** 1 unit

**Q.** And the “S-STS CMCM Risk of Suicide” value ([2]; the scores (Subjects 1 and 2), Day 8)?
**A.** 0 units
